Literature values as cited in patent US20250255843A1, “COMPOSITIONS COMPRISING CYSTEINE PRODRUGS AND METHODS USING THEREOF” (Nature's Fusions, LLC, priority 2022, published 2025).

Assays:
[1] = more stable than cysteine
[2] = in vivo
[3] = cell membrane
[4] = oral; metabolized in liver and kidney
oxidative damage = conditions: relative to NAC

SMILES | stability relative to cysteine [1] | increase of plasma (plasma GSH; medium to high doses (up to 8 g/day)) | bioavailability [2] | membrane penetration [3] | detectability in plasma [4] | increase of plasma GSH (plasma GSH; lower than 8 g/day doses) | protective agent against oxidative damage, concentration lower than that of NAC (oxidative damage)
CC(=O)N[C@@H](CS)C(=O)O [NAC, N-acetyl L-cysteine] | about 10 times | 5-20% | 4-6% | poorly membrane penetrable | almost undetectable in plasma | – | –
CCOC(=O)[C@H](CS)NC(C)=O [NACET, N-acetyl L-cysteine ethyl ester] | – | – | 60-80% | cell-permeable | – | 250% | 5-10 times
